Source: patent US20230404968A1, “Gamma Butyrolactone Derivatives for Inducing Differentiation in Neoplastic Cells” (priority 2022, published 2023)

Key:
KG1a cells [1] = assay: Cell viability (MTS) assay, KG1a; conditions: for cellular viability (MTS): KG1a cancer cells, at the given concentrations, 24, 48, and 72 hours; for toxicity: KG1a cell line, at a concentration of induction of cellular differentiation (FIGS. 9C, 10C)
Description: (§1) Cell culture methods and treatments. HL60 and KG1a cell lines were cultivated in RPMI 1640 (Sigma-USA) culture medium supplemented with 1% penicillin/streptomycin (Gibco-USA), 10% and 20% fetal bovine serum (Gibco-USA) for HL60 and KG1a cell lines, respectively, and 0.5% Glutamax (Gibco-USA) for HL60 cell line. The cells were incubated at 37° C., 5% CO2, and 90% humidity. The stock solution (Mol/L) of HSL-C8, HSL-C12, and A-factor were prepared in 0.1% (v/v) and 0.2% (v/v) and 0.2% (v/v) DMSO, respectively, as a vehicle and stored at −80° C. Different dilutions of HSL-C8, HSL-C12, A-factor, and GBL were prepared from the stock solution, and […] (<4% of the total volume) of each were added to the wells containing 100 μL of cell suspension (10000 and 20000 HL60 and KG1a cells per well). 0.1% and 0.2% DMSO were used as the negative control for HSL-C8, HSL-C12, and A-factor for each test. Culture medium were used as the negative control for GBL.
(§2) Cell viability assay. The cell viability was evaluated via (MTS) assay. HL60, KG1a, and PBMC cells were treated with HSL-C8, HSL-C12, A-factor, and GBL in 96-well plates for 24, 48, and 72 hours. Thereafter, […], of MTS/PMS solution were added to each well and the cells were incubated for 90 minutes. The optical density (OD) of samples was measured via spectrophotometer (EPOCH, BioTek, USA) at 490 nm and the viability of cells was calculated via the following formula:
(§3) Cell viability (%)=[ODsample/ODcontrol]×100

[2] = test system: peripheral blood mononuclear cells (PBMC); assay: Cell viability (MTS) assay, PBMC; assay type: cell-based; conditions: normal cells (PBMC), at the given concentrations, 24, 48, and 72 hours
Description: Cell viability assay. The cell viability was evaluated via (MTS) assay.
as §3

HL60 cells [3] = assay: Cell viability (MTS) assay, HL60; conditions: for cellular viability (MTS): HL60 cancer cells, at the given concentrations, 24, 48, and 72 hours; for toxicity: HL60 cell line, at a concentration of induction of cellular differentiation (FIGS. 9B, 10B)
Description: as §1, §2, §3

KG1a cells [4] = assay: Induction of differentiation: gene expression (qRT-PCR) and CD surface markers (flow cytometry), KG1a; assay type: cell-based; conditions: KG1a cell line; confirmed by expression of FLT3, PU1, CEBPA genes and CD3, CD20, CD14, CD33, CD16, CD56 surface markers
Description: (§4) Cell culture methods and treatments.
(§5) Flow cytometry. […] In addition, treated cells were incubated with antibody-dye conjugate against CD3, CD20, CD16, CD56, CD14, and CD33 for surface antigen analysis. Thereafter the samples were analyzed by flow cytometer (Attune NxT, Life Technologies-Thermo Fisher Scientific, USA). Treatment with 5 μL H2O2 and 1 μM ATRA were used as the positive controls for apoptosis and necrosis and surface antigen analyses, respectively. Data were analyzed with FlowJo software.
(§6) RNA isolation and qRT-PCR. […] The concentration of extracted RNA was measured via spectrophotometer (EPOCH, BioTek, USA) at 260 nm. The quality of isolated RNA was further evaluated via agarose gel electrophoresis indicating two distinctive bands. Isolated RNA was then converted to cDNA via a commercial kit according to the manufacturer's instructions. The primers were designed with AlleleID software and Primer3 algorithm and then double-checked via the BLAST algorithm. cDNA samples were then prepared for analysis using a commercial kit and analyzed with qRT-PCR machine (Applied Biosystems-Thermo Fisher Scientific, USA).

HL60 cells [5] = assay: Induction of differentiation: gene expression (qRT-PCR) and CD surface markers (flow cytometry), HL60; assay type: cell-based; conditions: HL60 cell line; confirmed by expression of FLT3, PU1, CEBPA genes and CD3, CD20, CD14, CD33, CD16, CD56 surface markers
Description: as §4, §5, §6

KG1a cells [6] = assay: Apoptosis/necrosis by flow cytometry, Annexin-V-FITC/PI staining, KG1a; assay type: cell-based
Description: as §4, §5

HL60 cells [7] = assay: Apoptosis/necrosis by flow cytometry, Annexin-V-FITC/PI staining, HL60; assay type: cell-based; conditions: for apoptosis (early and late) and necrosis: HL60 cells
Description: as §4, §5

KG1a cells [8] = assay: Wright-Giemsa staining and light microscopy (morphology), KG1a; assay type: cell-based
Description: as §4
(§7) Wright-Giemsa staining. HL60 and KG1a cells treated HSL-C8 and HSL-C12 were concentrated and then fixed on the slides with absolute ethanol prior to Wright-Giemsa staining. After staining for four minutes the 1 mL of tap water was added to the slides. After four minutes, they were washed with tap water, air-dried, and evaluated with a light microscopy.

HL60 cells [9] = assay: Wright-Giemsa staining and light microscopy (morphology), HL60; assay type: cell-based
Description: as §4, §7

Compound: CC(C)CCCCC(=O)C1C(=O)OCC1CO (stereo not drawn) [A-factor, 2-isocapryloyl-3R-hydroxymethyl-gamma-butyrolactone]
- cellular viability (MTS) (KG1a cells [1]): do not decrease the cellular viability of treated cancer cells and normal cells (PBMC) significantly
- toxicity (KG1a cells [1]): minimal toxicity
- cellular viability (MTS) [2]: do not decrease the cellular viability of treated cancer cells and normal cells (PBMC) significantly
- cellular viability (MTS) (HL60 cells [3]): do not decrease the cellular viability of treated cancer cells and normal cells (PBMC) significantly
- toxicity (HL60 cells [3]): minimal toxicity
- terminal cellular differentiation (KG1a cells [4]): induced terminal cellular differentiation
- terminal cellular differentiation (HL60 cells [5]): induced terminal cellular differentiation

Compound: O=C1CCCO1 [GBL, Gamma butyrolactone]
- cellular viability (MTS) (KG1a cells [1]): do not decrease the cellular viability of treated cancer cells and normal cells (PBMC) significantly
- toxicity (KG1a cells [1]): minimal toxicity
- cellular viability (MTS) [2]: do not decrease the cellular viability of treated cancer cells and normal cells (PBMC) significantly
- apoptosis (early and late) and necrosis (KG1a cells [6]; KG1a cells, 300 μM of GBL, 48 hours (FIG. 11)): minimal to no apoptosis (early and late) and necrosis
- cellular viability (MTS) (HL60 cells [3]): do not decrease the cellular viability of treated cancer cells and normal cells (PBMC) significantly
- toxicity (HL60 cells [3]): minimal toxicity
- terminal cellular differentiation (KG1a cells [4]): induced terminal cellular differentiation
- terminal cellular differentiation (HL60 cells [5]): induced terminal cellular differentiation
- apoptosis (early and late) and necrosis (HL60 cells [7]; 300 μM of GBL, 48 hours (FIG. 11)): minimal to no apoptosis (early and late) and necrosis

Compound: CCCCCC(=O)CC(=O)N[C@H]1CCOC1=O [HSL-C8]
- change of cell morphology (KG1a cells [8]; 100 μM and 200 μM of HSL-C8, 48 and 72 hours (FIG. 7B)): neutrophil and macrophage-like cells, with lobulated nuclei and expanded cytoplasm
- cellular viability (MTS) (KG1a cells [1]): do not decrease the cellular viability of treated cancer cells and normal cells (PBMC) significantly
- cellular viability (MTS) [2]: do not decrease the cellular viability of treated cancer cells and normal cells (PBMC) significantly
- concentrations that cause minimal to no apoptosis (KG1a cells [6]; human): ≤ 100 µM
- cellular viability (MTS) (HL60 cells [3]): do not decrease the cellular viability of treated cancer cells and normal cells (PBMC) significantly
- change of cell morphology (HL60 cells [9]; 50 μM and 100 μM of HSL-C8, 48 and 72 hours (FIG. 7A)): neutrophil and macrophage-like cells, with lobulated nuclei and expanded cytoplasm
- terminal cellular differentiation (KG1a cells [4]): induced terminal cellular differentiation
- terminal cellular differentiation (HL60 cells [5]): induced terminal cellular differentiation
- concentrations that cause minimal to no apoptosis (HL60 cells [7]; human): ≤ 100 µM

Compound: CCCCCCCCCC(=O)CC(=O)N[C@H]1CCOC1=O [HSL-C12]
- change of cell morphology (KG1a cells [8]; 100 μM and 150 μM of HSL-C12, 24 and 48 hours (FIG. 8B)): neutrophil and macrophage-like cells, with lobulated nuclei and expanded cytoplasm
- cellular viability (MTS) (KG1a cells [1]): do not decrease the cellular viability of treated cancer cells and normal cells (PBMC) significantly
- cellular viability (MTS) [2]: do not decrease the cellular viability of treated cancer cells and normal cells (PBMC) significantly
- apoptosis (early and late) and necrosis (KG1a cells [6]; KG1a cells, 100 μM of HSL-C12, 24 hours (FIG. 4C)): minimal to no apoptosis (early and late) and necrosis
- apoptosis (early and late) and necrosis (KG1a cells [6]; KG1a cells, 100 μM of HSL-C12, 48 hours (FIG. 4D)): minimal to no apoptosis (early and late) and necrosis
- apoptosis and necrosis (KG1a cells [6]; KG1a cells, 150 μM of HSL-C12, 24 hours (FIG. 4C)): minimal apoptosis and necrosis
- apoptosis (early and late) and necrosis (KG1a cells [6]; KG1a cells, 150 μM of HSL-C12, 48 hours (FIG. 4D)): moderate apoptosis (early and late) and necrosis
- cellular viability (MTS) (HL60 cells [3]): do not decrease the cellular viability of treated cancer cells and normal cells (PBMC) significantly
- change of cell morphology (HL60 cells [9]; 100 μM and 150 μM of HSL-C12, 24 and 48 hours (FIG. 8A)): neutrophil and macrophage-like cells, with lobulated nuclei and expanded cytoplasm
- terminal cellular differentiation (KG1a cells [4]): induced terminal cellular differentiation
- terminal cellular differentiation (HL60 cells [5]): induced terminal cellular differentiation
- apoptosis (early and late) and necrosis (HL60 cells [7]; 50 and 100 μM of HSL-C12, 24 hours (FIG. 4A)): minimal to no apoptosis (early and late) and necrosis
- apoptosis (early and late) and necrosis (HL60 cells [7]; 50 and 100 μM of HSL-C12, 48 hours (FIG. 4B)): minimal to no apoptosis (early and late) and necrosis
